Results from paper PMC4170777, “Effect of Temperature on Xylanase II from Trichoderma reesei QM 9414: A Calorimetric, Catalytic, and Conformational Study” (Enzyme Research, 2014).

Target: T1, xylanase II (XYN II) (Trichoderma reesei, UniProt P36217)
T1 construct: gene xyn2; native secreted enzyme purified from wheat-straw culture supernatant of T. reesei QM 9414
Assay: differential scanning calorimetry
Type: binding
Conditions: 0.4 M GL, 1 mg/mL protein, 0.1 M sodium citrate pH 5, scan rate 15°C/h; absolute Tm, not a shift; control without GL 57.27°C (irreversible)
From the text: differential scanning calorimetry on xylanase II (XYN II)

T1 sequence (P36217 34-223): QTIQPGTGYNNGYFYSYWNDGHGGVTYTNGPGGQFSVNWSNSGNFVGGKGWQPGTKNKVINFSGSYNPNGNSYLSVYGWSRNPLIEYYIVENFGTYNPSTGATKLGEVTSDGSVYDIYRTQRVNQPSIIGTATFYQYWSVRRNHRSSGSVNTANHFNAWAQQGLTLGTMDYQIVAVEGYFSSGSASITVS

- Global: 54.1 °C
Compound: O=C1O[C@H](CO)[C@@H](O)[C@H](O)[C@H]1O (mixture of isomers) [GL, D-glucono-1,5-lactone]
